Reference: paper PMC3466204 (PLoS ONE, 2012)
Several values for one entry are separate records, joined by “and”; a condition that tells them apart may be missing. Identical values can stand only once. Ends that are not written are not given here.

Assays:
Lactococcus lactis HP = assay: Agarose-based assay of cell-free supernatants of S29X producing strains; details: for Zone Diameter (mm): agarose (1%) GM17 assay, 10 µl cell-free supernatant of overnight producing culture in 4.6 mm wells, L. lactis HP, 30°C; for % difference (zone relative to wild type): agarose assay of supernatants against L. lactis HP, wild type serine = 100
Protocol: (§1) Agarose-based deferred antagonism assays were carried out as follows: GM17/LB (0.03%) underlay was prepared with 10 mM sodium phosphate buffer (SPB) at pH 7.4 to which was added agarose (1% w/v agarose), autoclaved and cooled to 50°C. Bacteria grown to mid-logarithmic phase were harvested by centrifugation and washed with 10 mM SPB at pH 7.4. Bacteria were then added to 15 mls cooled underlay medium to reach a concentration of 2×10^7 colony-forming units (CFU)/mL. The inoculated medium was rapidly transferred into sterile Petri plates, allowed to solidify and dried. Wells (4.6 mm in diameter) were then made in the seeded plates. 10 µl volumes of cell-free supernatant from overnight nisin derivative producing cultures or resuspended purified peptides were then added to the wells and the plates incubated at 30°C (L. lactis) or 37°C (Gram positive strains) or RT (Gram negative strains) for 3 hours. Polymyxin B (Sigma Aldrich) was used at a concentration of 20 µg/ml. The plates were then overlaid with 15 mls of autoclaved double strength GM17 (L. lactis) or LB (Gram negatives) agarose (1% w/v agarose) overlay medium precooled to 50°C. The plates were then incubated overnight at the relevant temperature.

E. durans 5133 = assay: Broth MIC, Gram positive; format: cell-based, Enterococcus durans; details: broth microtitre, BSA pre-treated plates, 10^5 cfu ml^−1, 2-fold dilutions from 2.5 µM, 16 h 37°C, purified peptide, mean of triplicate assays
Protocol: (§2) Minimum inhibitory concentration determinations for Gram positive organisms were carried out in triplicate in microtitre plates (Sarstedt). 96 well microtitre plates were pre-treated with bovine serum albumin (BSA) prior to addition of the peptides. Briefly, to each well of the microtitre plate 200 µL of phosphate buffered saline (PBS) containing 1% (w/v) bovine serum albumin (PBS/BSA) was added and incubated at 37°C for 30 min. The wells were washed with 200 µL PBS and allowed to dry. Target strains were grown overnight in the appropriate conditions and medium, subcultured into fresh broth and allowed to grow to an OD600 of ∼0.5, diluted to a final concentration of 10^5 cfu ml^−1 in a volume of 0.2 ml. Wild type nisin and nisin mutant peptides were adjusted to a 10 µM (S. mitis, B. cereus), 7.5 µM (L. monocytogenes), 5 µM (hVISA) 2.5 µM (MRSA, E. durans), or 500 nM (L. lactis strains) starting concentration and 2-fold serial dilutions of each peptide were added to the target strain.

C. sakazakii DPC 6440 [1] = assay: Agarose gel diffusion assay, purified peptide; format: cell-based, Cronobacter sakazakii; details: purified peptide 60 µM; for Zone of inhibition, agarose gel diffusion: C. sakazakii DPC 6440, mean of triplicate assays
Protocol: as §1

C. sakazakii DPC 6440 [2] = assay: Broth MIC, Gram negative; format: cell-based, Cronobacter sakazakii; details: cells washed in 10 mM SPB pH 7.4, 2×10^5 CFU/mL, 2 h RT with peptide, then double strength LB, RT overnight, mean of triplicate assays
Protocol: (§3) Minimum inhibitory concentration determinations for Gram negative strains were carried out in triplicate in 96 well microtitre plates. Briefly, bacteria (E. coli, C. sakazakii and Salmonella) grown to mid-logarithmic phase were harvested by centrifugation, washed with 10 mM SPB at pH 7.4, and diluted to 2×10^5 colony-forming units (CFU)/mL in SPB. Nisin and nisin derivative peptides were resuspended in sterile HPLC water and 50 µL aliquots were added to wells containing 50 µL of 2×10^5 CFU of bacteria. Plates were incubated at RT for two hours with agitation. Double strength Luria–Bertani (LB) broth (100 µL) was added and the plates were incubated at RT overnight, the MIC was taken as the lowest concentration at which growth was inhibited.

S. mitis UCC5000 = assay: Broth MIC, Gram positive; format: cell-based, Streptococcus mitis; details: broth microtitre, BSA pre-treated plates, 10^5 cfu ml^−1, 2-fold dilutions from 10 µM, 16 h 37°C, purified peptide, mean of triplicate assays
Protocol: as §2

B. cereus DPC 6088 = assay: Broth MIC, Gram positive; format: cell-based, Bacillus cereus; details: broth microtitre, BSA pre-treated plates, 10^5 cfu ml^−1, 2-fold dilutions from 10 µM, 16 h 37°C, purified peptide, mean of triplicate assays
Protocol: as §2

B. cereus DPC 6089 = assay: Broth MIC, Gram positive; format: cell-based, Bacillus cereus; details: broth microtitre, BSA pre-treated plates, 10^5 cfu ml^−1, 2-fold dilutions from 10 µM, 16 h 37°C, purified peptide, mean of triplicate assays
Protocol: as §2

[3] = test system: Salmonella enterica serovar Typhimurium UK1; assay: Agarose gel diffusion assay, purified peptide; format: cell-based; details: purified peptide 60 µM; for Zone of inhibition, agarose gel diffusion: Salmonella Typhimurium UK1, mean of triplicate assays
Protocol: as §1

E. coli 0157-H7 [4] = assay: Agarose gel diffusion assay, purified peptide; format: cell-based; details: purified peptide 60 µM; for Zone of inhibition, agarose gel diffusion: E. coli 0157-H7, mean of triplicate assays
Protocol: as §1

L. lactis HP = assay: Broth MIC, Gram positive; format: cell-based; details: broth microtitre, BSA pre-treated plates, 10^5 cfu ml^−1, 2-fold dilutions from 500 nM, 16 h, purified peptide, mean of triplicate assays
Protocol: as §2

L. monocytogenes LO28 = assay: Broth MIC, Gram positive; format: cell-based; details: broth microtitre, BSA pre-treated plates, 10^5 cfu ml^−1, 2-fold dilutions from 7.5 µM, 16 h 37°C, purified peptide, mean of triplicate assays
Protocol: as §2

[5] = test system: ST 530 (Methicillin resistant S. aureus); assay: Broth MIC, Gram positive; format: cell-based; details: broth microtitre, BSA pre-treated plates, 10^5 cfu ml^−1, 2-fold dilutions from 2.5 µM, 16 h 37°C, purified peptide, mean of triplicate assays
Protocol: as §2

L. lactis MG1363 [6] = assay: Broth MIC, Gram positive; format: cell-based; details: broth microtitre, BSA pre-treated plates, 10^5 cfu ml^−1, 2-fold dilutions from 500 nM, 16 h, purified peptide, mean of triplicate assays
Protocol: as §2

[7] = test system: hVISA 32679 (heterogenous Vancomycin-intermediate S. aureus); assay: Broth MIC, Gram positive; format: cell-based; details: broth microtitre, BSA pre-treated plates, 10^5 cfu ml^−1, 2-fold dilutions from 5 µM, 16 h 37°C, purified peptide, mean of triplicate assays
Protocol: as §2

[8] = test system: ST 528 (Methicillin resistant S. aureus); assay: Broth MIC, Gram positive; format: cell-based; details: broth microtitre, BSA pre-treated plates, 10^5 cfu ml^−1, 2-fold dilutions from 2.5 µM, 16 h 37°C, purified peptide, mean of triplicate assays
Protocol: as §2

L. monocytogenes 10403S = assay: Broth MIC, Gram positive; format: cell-based; details: broth microtitre, BSA pre-treated plates, 10^5 cfu ml^−1, 2-fold dilutions from 7.5 µM, 16 h 37°C, purified peptide, mean of triplicate assays
Protocol: as §2

S. aureus RF122 = assay: Broth MIC, Gram positive; format: cell-based; details: broth microtitre, BSA pre-treated plates, 10^5 cfu ml^−1, 2-fold dilutions, 16 h 37°C, purified peptide, mean of triplicate assays
Protocol: as §2

C. sakazakii DPC 6440 [9] = assay: Agarose gel diffusion assay, peptide alone or with polymyxin B nonapeptide (PMBN); format: cell-based, Cronobacter sakazakii; details: for Total area of inhibitory zone, peptide alone: purified peptide 30 µM alone; for Total area of inhibitory zone, peptide + PMBN: purified peptide 30 µM in combination with polymyxin B nonapeptide (PMBN) 20 µg/ml
Protocol: as §1
Polymyxin B (PMB) is a cyclic lipodecapaptide produced by bacteria of the genus Paenibacillus that acts primarily on the Gram negative cell wall, leading to rapid permeability changes in the cytoplasmic membrane and ultimately cell death. […] To that end, C. sakazakii DPC 6440 cells were treated with purified nisin A, S29G and S29A peptides alone (30 µM) or in combination with PMBN at a concentration of 20 µg/ml and determined the antimicrobial activity by agarose gel diffusion assay (Fig. 5). […] When used in combination with PMBN, a substantial synergistic effect was clearly evident (Fig. 5) but in this instance no significant difference in efficacy was observed between nisin A or either of the derivatives S29A or S29G.

[10] = test system: Salmonella enterica serovar Typhimurium UK1; assay: Broth MIC, Gram negative; format: cell-based; details: cells washed in 10 mM SPB pH 7.4, 2×10^5 CFU/mL, 2 h RT with peptide, then double strength LB, RT overnight, mean of triplicate assays
Protocol: as §3

E. coli 0157-H7 [11] = assay: Broth MIC, Gram negative; format: cell-based; details: cells washed in 10 mM SPB pH 7.4, 2×10^5 CFU/mL, 2 h RT with peptide, then double strength LB, RT overnight, mean of triplicate assays
Protocol: as §3

L. lactis MG1363 [12] = details: truncated nisin, ref [36]; cited from earlier work
Source text: The increased efficacy resulted from a single mutation located at serine 29, within the C-terminal of nisin. The importance of Serine 29 for activity has previously been noted when Chan et al report ...

S. typhimurium UK-1 = assay: Kill curve analysis; format: cell-based, Salmonella enterica serovar Typhimurium; details: 33 mg/L purified peptide, 2×10^5 cfu ml^−1, 37°C for 1 hour
Protocol: (§4) Using purified peptide in each case, 10 mM sodium phosphate buffer washed C. sakazakii, E. coli and Salmonella strains were diluted to a final concentration of 2×10^5 cfu ml^−1 and were exposed to nisin A, S29G and S29A at a concentration of 33 mg/L. Following incubation at 37°C for 1 hour, bacterial growth was monitored through plate counts.

C. sakazakii DPC 6440 [13] = assay: Kill curve analysis; format: cell-based, Cronobacter sakazakii; details: 33 mg/L purified peptide, 2×10^5 cfu ml^−1, 37°C for 1 hour
Protocol: as §4

E. coli = assay: Kill curve analysis; format: cell-based; details: 33 mg/L purified peptide, 2×10^5 cfu ml^−1, 37°C for 1 hour
Protocol: as §4

Row | Substance | Zone Diameter (mm) (Lactococcus lactis HP) | % difference (zone relative to wild type) (Lactococcus lactis HP) | MIC (E. durans 5133) | Zone of inhibition, agarose gel diffusion (C. sakazakii DPC 6440 [1]) | MIC (C. sakazakii DPC 6440 [2]) | MIC (S. mitis UCC5000) | MIC (B. cereus DPC 6088) | MIC (B. cereus DPC 6089) | Zone of inhibition, agarose gel diffusion [3] | Zone of inhibition, agarose gel diffusion (E. coli 0157-H7 [4]) | MIC (L. lactis HP) | MIC (L. monocytogenes LO28) | MIC [5] | MIC (L. lactis MG1363 [6]) | MIC [7] | MIC [8] | MIC (L. monocytogenes 10403S) | MIC (S. aureus RF122) | Total area of inhibitory zone, peptide alone (C. sakazakii DPC 6440 [9]) | Total area of inhibitory zone, peptide + PMBN (C. sakazakii DPC 6440 [9]) | other results
1 | nisin A (ITSISLCTPGCKTGALMGCNMKTATCHCSIHVSK; thioether (positions not given here); not fully specified (residues 2, 5, 33, bridges); also: lantibiotic, ring and dehydro modifications not given here; UniProt P13068 24-57, looked up) [wild type lantibiotic bacteriocin purified from L. lactis NZ9700; serine at position 29, reference compound] | 15.2±0.2 mm | 100% | 0.52 mg/L and 0.156 µM | 9.77±0.17 mm | 12.57 mg/L and 3.75 µM | 8.38 mg/L and 2.5 µM | 8.38 mg/L and 2.5 µM | 8.38 mg/L and 2.5 µM | 9.88±0.11 mm | 9.81±0.04 mm | 0.2 mg/L and 0.062 µM | 6.28 mg/L and 1.875 µM | 0.52 mg/L and 0.156 µM | 0.8 mg/L and 0.250 µM | 4.19 mg/L | 0.52 mg/L and 0.156 µM | 12.57 mg/L and 3.75 µM | 1.04 mg/L | 40.0±2.3 mm^2 | 115.61±2.9 mm^2 | MIC ([7]; listed as NisinA): 1.25 µM; MIC (S. aureus RF122; listed as NisinA): 0.312 µM; MIC [10]: > 100 mg/L and > 30 µM; MIC (E. coli 0157-H7 [11]): 50.28 mg/L and 15 µM
2 | nisin 1–28: truncated version of nisin, literature (ITSISLCTPGCKTGALMGCNMKTATCHC; ends and bridges not checked; cysteine pairing not given here; UniProt P13068 24-51, looked up, fragment) | – | – | – | – | – | – | – | – | – | – | – | – | – | – | – | – | – | – | – | – | fold reduced inhibitory activity relative to nisin (L. lactis MG1363 [12]): 100 fold
3 | S29A: bioengineered nisin A derivative, serine 29 replaced by alanine (ITSISLCTPGCKTGALMGCNMKTATCHCAIHVSK; not fully specified (residues 2, 5, 33, bridges); cysteine pairing not given here; UniProt P13068 24-57, looked up, variant S29A) | 16.6±0.3 mm | 109 (0.004) % | 0.13 mg/L and 0.039 µM | 11.65±0.12 mm | 6.28 mg/L and 1.875 µM | 4.19 mg/L | 2 mg/L | 4.19 mg/L and 1.25 µM | 11.29±0.23 mm | 11.50±0.05 mm | 0.1 mg/L and 0.031 µM | 3.14 mg/L and 0.937 µM | 0.26 mg/L and 0.078 µM | 0.2 mg/L and 0.062 µM | 2 mg/L and 0.625 µM | 0.26 mg/L and 0.078 µM | 6.28 mg/L and 1.875 µM | 0.52 mg/L and 0.156 µM | 49.0±1.24 mm^2 | 121.5±6.3 mm^2 | Killing compared with nisin A (plate counts) (S. typhimurium UK-1): greater activity than wildtype nisin A; Zone as % wt (C. sakazakii DPC 6440 [1]; C. sakazakii DPC 6440, relative to nisin A): 119 % wt; Zone as % wt ([3]; Salmonella Typhimurium UK1, relative to nisin A): 114 % wt; Zone as % wt (E. coli 0157-H7 [4]; E. coli 0157-H7, relative to nisin A): 117 % wt; Killing compared with nisin A (plate counts) (C. sakazakii DPC 6440 [13]): greater activity than wildtype nisin A; Killing compared with nisin A (plate counts) (E. coli): greater activity than wildtype nisin A; MIC [10]: 50.28 mg/L and 15 µM; MIC (E. coli 0157-H7 [11]): 25.14 mg/L and 7.5 µM
